Target: T1, human alpha-7 nAChR (Homo sapiens, UniProt P36544)
T1 construct: expressed in transfected cells; host or cells: Xenopus laevis oocytes (cRNA injection)
Assay: Two-electrode voltage clamp of alpha-7 nAChR expressed in Xenopus oocytes (net charge)
Format: cell-based
Details: for Charge Alone: compound alone acting as an allosteric agonist; for Charge Alone / Charge +C: area under the curve of current vs. time; for Charge +C: compound together with choline or ACh, includes PAM and ago-PAM activity; call rule not given here
Description: The human alpha-7 nAChR receptor clone was obtained from Dr. Jon Lindstrom {University of Pennsylvania, Philadelphia, Pa.), aid the RIC-3 clone from Dr. Millet Treinin (Hebrew University, Jerusalem, Israel) for the purpose of co-injection with a7 to improve the level and speed of receptor expression (Halevi et al., 2003). After linearization and purification of cloned cDNA's, RNA, transcripts were prepared rising the appropriate mMessage mMachine kit tiom Ambion (Austin, Tex.).
Expression in X, laeivis Oocytes
Oocytes were obtained from mature (>9 cm) female Xenopus laeivis African frogs (Nasco, Ft. Atkinson, Wis.). Frogs were anesthetized in 0.7 g/L solution of ethyl 3-aminobenzoate methanesulfonate buffered with sodium bicarbonate, and oocytes were surgically removed through an abdominal incision. Harvested oocytes were treated with 1.25 mg/ml collagenase (Worthington Biochemicals, Freehold, N.J.) in calcium-free Barth's solution (88 mM NaCl, 1 mM KCl, 2.38 mM NaHCO3, 0.82 mM MgSO4, 15 mM HEPES, 12 mg/L tetracycline, pH 7.6) for 3-4 hours to remove the follicular layer. Stage-5 oocytes were isolated and injected with 50 nL (5-20 ng) of human alpha-7 and RIC-3 cRNA. Suitable levels of receptor expression were typically achieved 2-6 days after injection of cRNA. For experiments involving the PAM 4BP-TQS/GAT-107, where standard levels of expression result in ion currents too large to be recorded in voltage clamp, experiments were typically conducted 1-3 days after RNA injection.
Two-electrode voltage clamp experiments were conducted using OpusXpress6000A (Molecular Devices, Sunnyvale, Calif.), an integrated system that provides automated impalement and voltage clamp of up to eight oocytes in parallel. Both the current and voltage electrodes were filled with 3 M KCl, and oocytes were clamped at a holding potential of −60 mV. Data were collected at 50 Hz and filtered at 20 Hz. The oocytes were bath-perfused with Ringer's solution (115 mM NaCl, 10 mM HEPES, 2.5 mM KCl, 1.8 mM CaCl2, pH 7.3), and agonist solutions were delivered from a 96-well drug plate using disposable tips. Flow rates were set at 2 mL/min, with each drug or control solution delivered in 12 s durations, followed˜by 181 s washouts with Ringer's unless noted otherwise.
Experimental Protocols and Data Analysis
Responses of human alpha-7 receptors to agonists were measured as both peek current and net charge measured over a 120 s period beginning with the compound application (Papke and Papke, 2002). […] In experiments involving positive allosteric modulators (PAMs), the fast desensitization of alpha-7 was eliminated, allowing peak currents to be used as a valid measurement of the receptor-mediated responses (Wang et al., 2012; Williams et al., 2011).
Oocytes received two control ACh applications prior to receiving any drug in order to establish a steady reference response, and they received one or more control ACh applications at the end of all experiments. For experiments involving drug incubation through bath applications, all responses were normalized to the average of two ACh control responses taken immediately prior to the switch of bath solution, for each cell individually. These normalization procedures had the effect of compensating for differing levels of receptor expression among the multiple oocytes used in each experiment. Each experiment was conducted on at least four oocytes, with mean values and standard errors (S.E.M.) calculated from their normalized responses. […]

T1 sequence (P36544 23-502): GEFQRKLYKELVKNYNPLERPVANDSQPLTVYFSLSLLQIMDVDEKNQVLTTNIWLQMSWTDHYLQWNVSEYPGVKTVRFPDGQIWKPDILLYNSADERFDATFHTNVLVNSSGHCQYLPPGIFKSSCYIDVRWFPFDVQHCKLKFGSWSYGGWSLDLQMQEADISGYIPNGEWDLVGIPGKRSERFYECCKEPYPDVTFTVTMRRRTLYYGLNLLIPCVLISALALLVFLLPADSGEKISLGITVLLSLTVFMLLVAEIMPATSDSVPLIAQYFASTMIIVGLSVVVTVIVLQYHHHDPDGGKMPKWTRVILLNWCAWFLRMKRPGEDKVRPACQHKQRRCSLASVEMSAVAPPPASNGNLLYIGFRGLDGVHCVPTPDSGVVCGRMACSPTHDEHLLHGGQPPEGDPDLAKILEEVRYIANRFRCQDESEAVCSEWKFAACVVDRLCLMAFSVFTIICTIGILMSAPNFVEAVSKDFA

Row | Structure (SMILES) | Charge Alone | Charge +C | 'ago' component / ago-PAM activity (in words)
1 | CCCNS(=O)(=O)c1ccc2c(c1)[C@H]1C=CC[C@H]1[C@H](c1ccc(Br)cc1)N2 (stereo in doubt) [Compound 106, 4-(4-bromophenyl)-N-propyl-3a,4,5,9b-tetrahydro-3H-cyclopenta[c]quinoline-8-sulfonamide] | Inactive | Inactive | –
2 | [N-]=[N+]=Nc1ccc([C@@H]2Nc3ccc(S(N)(=O)=O)cc3[C@@H]3C=CC[C@@H]32)cc1 [Compound 47, (3aS,4R,9bR)-4-(4-azidophenyl)-3a,4,5,9b-tetrahydro-3H-cyclopenta[c]quinoline-8-sulfonamide] | Inactive | Inactive | –
3 | NS(=O)(=O)c1ccc2c(c1)[C@H]1C=CC[C@H]1[C@@H](c1ccc(S(F)(F)(F)(F)F)cc1)N2 (stereo in doubt) [Compound 31, 4-(4-(pentafluoro-λ^6-sulfanyl)phenyl)-3a,4,5,9b-tetrahydro-3H-cyclopenta[c]quinoline-8-sulfonamide] | 89 | 206 | –
4 | O=S(=O)(NCC1CC1)c1ccc2c(c1)[C@H]1C=CC[C@H]1[C@@H](c1ccc(Br)cc1)N2 (stereo in doubt) [Compound 105, 4-(4-bromophenyl)-N-(cyclopropylmethyl)-3a,4,5,9b-tetrahydro-3H-cyclopenta[c]quinoline-8-sulfonamide] | Inactive | Inactive | –
5 | O=S(=O)(c1ccc2c(c1)[C@H]1C=CC[C@H]1[C@@H](c1ccc(Br)cc1)N2)N1CCCC1 [Compound 57, (3aR,4S,9bS)-4-(4-bromophenyl)-8-(pyrrolidin-1-ylsulfonyl)-3a,4,5,9b-tetrahydro-3H-cyclopenta[c]quinolone] | Inactive | Inactive | –
6 | NS(=O)(=O)c1ccc2c(c1)[C@H]1C=CC[C@H]1[C@@H](c1ccsc1)N2 (stereo in doubt) [Compound 15, 4-(thiophen-3-yl)-3a,4,5,9b-tetrahydro-3H-cyclopenta[c]quinoline-8-sulfonamide] | – | 500 | –
7 | NS(=O)(=O)c1ccc2c(c1)[C@H]1C=CC[C@H]1[C@@H](c1cc(Br)sc1Br)N2 [Compound 67, (3aR,4S,9bS)-4-(2,5-dibromothiophen-3-yl)-3a,4,5,9b-tetrahydro-3H-cyclopenta[c]quinoline-8-sulfonamide] | – | 100 | –
8 | NS(=O)(=O)c1ccc2c(c1)[C@H]1C=CC[C@H]1[C@@H](c1ccc(OCc3ccccc3)cc1)N2 [Compound 50, (3aR,4S,9bS)-4-(4-(benzyloxy)phenyl)-3a,4,5,9b-tetrahydro-3H-cyclopenta[c]quinoline-8-sulfonamide] | 20 | 67 | moderate ago-PAM activity
9 | O=S(=O)(c1ccc2c(c1)[C@H]1C=CC[C@H]1[C@@H](c1ccc(Br)cc1)N2)N1CCOCC1 (stereo in doubt) [Compound 23, 4-((4-(4-bromophenyl)-3a,4,5,9b-tetrahydro-3H-cyclopenta[c]quinolin-8-yl)sulfonyl)morpholine] | Inactive | Inactive | –
10 | CCCCNS(=O)(=O)c1ccc2c(c1)[C@H]1C=CC[C@H]1[C@@H](c1ccc(Br)cc1)N2 (stereo in doubt) [Compound 110, 4-(4-bromophenyl)-N-butyl-3a,4,5,9b-tetrahydro-3H-cyclopenta[c]quinoline-8-sulfonamide] | Inactive | Inactive | –
11 | Nc1ccc([C@H]2Nc3ccc(S(N)(=O)=O)cc3[C@H]3C=CC[C@H]32)cc1 (stereo in doubt) [Compound 18, 4-(4-aminophenyl)-3a,4,5,9b-tetrahydro-3H-cyclopenta[c]quinoline-8-sulfonamide] | – | 250 | –
12 | NS(=O)(=O)c1ccc2c(c1)[C@H]1C=CC[C@H]1[C@@H](c1ccc([N+](=O)[O-])cc1)N2 (stereo in doubt) [Compound 8, 4-(4-nitrophenyl)-3a,4,5,9b-tetrahydro-3H-cyclopenta[c]quinoline-8-sulfonamide] | 43 | 318 | –

Reference: patent US11299496B2, “Ligands for alpha-7 nicotinic acetylcholine receptors and methods of treating neurological and inflammatory conditions” (Northeastern University, priority 2014, dated 2022)
